How the values were obtained:
[1] = human, in vivo, topical or ocular; cited from earlier work
[2] = human, in vivo, topical or ocular
Source text: The total duration of study for each subject participating in this study is 5 months. It consists of one base-line period followed by three treatment periods and one recovery period. Each period is one menstrual cycle of the person subjects.
Subjects attending this 5 month-long study were randomly divided and sequentially admitted into three study groups. Group A, B and C subjects received one piece of 7.5 cm^2, 10.0 cm^2 and 12.5 cm^2 TCDS patch weekly, respectively, for three consecutive weeks I each of the three treatment periods. During the baseline and recovery periods, all the subjects received only the placebo patch of the corresponding size for three consecutive weeks. During the fourth week of each study period, no patch was worn by the subjects in any treatment groups.
According to the blood sampling schedule, a total of 57 blood samples (about 10 ml per sample) were taken from each subject during the 5-month study. During the three treatment cycles, 15 samples were taken through out the 21 days of patch wearing period. At the end of the third treatment cycle, 5 additional blood samples were taken during the 24 hours post patch removal which allows the elimination pharmacokinetics of drugs to be studied. […]
Serum level of levonorgestrel (LNG), ethinyl estradiol (EE) as well as luteinizing hormone (LH), progesterone (P) and estradiol (E2) were analyzed by radio-immunassay methods.

levels achieved by the TCDS formulation of the present invention [2] | SMILES | levels achieved by the system described in the '956 patent [1]
 | C#C[C@]1(O)CC[C@H]2[C@@H]3CCC4=CC(=O)CC[C@@H]4[C@H]3CC[C@@]21CC [levonorgestrel] | 0.4 ng/mL
0.035 to 0.075 ng/mL | C#C[C@]1(O)CC[C@H]2[C@@H]3CCc4cc(O)ccc4[C@H]3CC[C@@]21C [ethinyl estradiol] | 
